Source: US9097693B2, “Simple analysis method of drugs” (priority 2005, dated 2015)
Read-outs that look alike come from different tables or passages of the source.

Conditions: for nicotine content in hair: smoker, three 6 cm hairs (about 0.9 mg)
Procedure: Three 60 mm hairs (about 0.9 mg) were put in a stainless injection needle (inner diameter of 0.5 mm, outer diameter of 0.7 mm, the tip conical part length of 2 mm, the container part length of 80 mm, and one aperture of 0.4 mm in diameter in the lateral side of the end of the container). A syringe was fixed to the needle and methanol, dichloromethane and methanol each one ml were run in this order through the needle to wash the hairs.
Then, the needle was inserted into an injector (at 300° C.) of a gas chromatograph (Agilent, HP-6890) and held for 15 seconds. Then, dichloromethane (25 μL) was injected for desorption and a carrier gas was run. The chromatography was conducted under the following conditions. • Column diameter: 0.25 mm • Column length: 25 m • Column stationary phase: dimethylpolysiloxane (HR-1) • Column temperature: 50° C. to 300° C. (temperature rising: 5° C./min) • Carrier gas: helium • Carrier gas flow: 0.9 ml/min • Split ratio: 25:1 • Detector: MS (Agilent, HP-5972)
Three 6 cm hairs (about 0.9 mg) were used for the analysis.

## CN1CCCC1c1cccnc1 (stereo not shown) [nicotine]
Hair of smoker, three 60 mm hairs (about 0.9 mg), GC-MS
  nicotine detection in hair: clearly detected
10 cigarettes per day, tobacco brand B (nominal nicotine 0.7 mg)
  nicotine content in hair: 11.5 ng/mg
15 cigarettes per day, tobacco brand E (nominal nicotine 0.8 mg)
  nicotine content in hair: 8.2 ng/mg
15 cigarettes per day, tobacco brand F (nominal nicotine 0.1 mg)
  nicotine content in hair: 13.0 ng/mg
20 cigarettes per day, tobacco brand A (nominal nicotine 1.2 mg)
  nicotine content in hair: 12.1 ng/mg
20 cigarettes per day, tobacco brand D (nominal nicotine 0.1 mg)
  nicotine content in hair: 30.5 ng/mg
30 cigarettes per day, tobacco brand C (nominal nicotine 0.4 mg)
  nicotine content in hair: 55.3 ng/mg
